In patent publication US9834558B2, “Substituted bridged urea analogs as sirtuin modulators” (GLAXOSMITHKLINE LLC, priority 2013, dated 2017):

Target: T1, SIRT1 (Homo sapiens, UniProt Q96EB6)
T1 sequence (Q96EB6 1-747): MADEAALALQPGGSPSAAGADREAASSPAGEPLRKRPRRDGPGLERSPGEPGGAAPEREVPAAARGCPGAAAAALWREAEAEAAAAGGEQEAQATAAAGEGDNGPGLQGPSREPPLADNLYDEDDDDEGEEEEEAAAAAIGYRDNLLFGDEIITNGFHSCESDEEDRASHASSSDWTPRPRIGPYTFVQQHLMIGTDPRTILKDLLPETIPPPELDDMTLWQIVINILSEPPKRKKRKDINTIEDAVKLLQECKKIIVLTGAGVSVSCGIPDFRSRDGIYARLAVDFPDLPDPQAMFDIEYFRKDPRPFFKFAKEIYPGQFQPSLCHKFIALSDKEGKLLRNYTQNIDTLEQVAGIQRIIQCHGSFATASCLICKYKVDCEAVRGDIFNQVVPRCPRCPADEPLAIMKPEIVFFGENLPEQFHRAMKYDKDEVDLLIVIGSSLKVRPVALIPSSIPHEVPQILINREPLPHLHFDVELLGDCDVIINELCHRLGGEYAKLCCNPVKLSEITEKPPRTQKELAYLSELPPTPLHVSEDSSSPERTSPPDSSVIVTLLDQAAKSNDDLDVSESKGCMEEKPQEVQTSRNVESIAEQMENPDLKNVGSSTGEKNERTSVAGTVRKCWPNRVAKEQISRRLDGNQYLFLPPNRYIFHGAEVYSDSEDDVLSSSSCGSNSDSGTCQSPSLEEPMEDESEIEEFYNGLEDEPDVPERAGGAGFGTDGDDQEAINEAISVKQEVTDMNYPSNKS
Assay: Trp mass spectrometry assay of SIRT1 activation
Type: biochemical
Settings: for TRP Activity (EC1.5) / Emax: Trp peptide assay; for TRP Activity (EC1.5): EC1.5 = concentration that results in 150% activation of SIRT1; for Emax: maximum activity relative to control (100%), read-out: TRP MAX RESP (percent maximum fold activation)
Method in brief: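 N-terminal His-tagged human SIRT1 (10 nM, E. coli BL21(DE3)) with 0.5 μM Ac-RHKK(Ac)W-NH2 peptide and 120 μM βNAD+, 25 min at 25 °C in HEPES pH 7.5, formic acid stop. OAADPR or deacetylated peptide quantified by mass spectrometry; EC1.5 (50% activity increase over control) and Percent Maximum Activation reported.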

[1] = concentration giving 150% activation of SIRT1, Trp peptide substrate
[2] = Trp mass spectrometry assay, EC1.5 = concentration of test compound that results in 150% activation of SIRT1
[3] = Trp mass spectrometry assay, concentration of test compound giving 150% activation of SIRT1

TRP Activity (EC1.5) | Emax | Structure (SMILES) | other results
B (B (EC1.5 1-25 μM)) | > 150% | CCn1cc(-c2ccc3c(n2)N(C(=O)Nc2cnccn2)[C@H]2CCN3C2)cn1 [(9S)-5-(1-ethyl-1H-pyrazol-4-yl)-N-(pyrazin-2-yl)-1,6,8-triazatricyclo[7.2.1.0 {2,7}]dodeca-2(7),3,5-triene-8-carboxamide] | 
C (C (EC1.5>25 μM)) | < 150% | C[C@@H]1CN(c2ccc3c(n2)N(C(=O)Nc2cnccn2)[C@H]2CCN3C2)CCN1 [(9S)-5-[(3R)-3-methylpiperazin-1-yl]-N-(pyrazin-2-yl)-1,6,8-triazatricyclo[7.2.1.0 {2,7}]dodeca-2,4,6-triene-8-carboxamide] | 
C (C (EC1.5>25 μM)) | < 150% | Cc1ccc(-c2ccc3c(n2)N(C(=O)NC2CCN(C)CC2)[C@H]2CCN3C2)cn1 [(9S)-N-(1-methylpiperidin-4-yl)-5-(6-methylpyridin-3-yl)-1,6,8-triazatricyclo[7.2.1.0^{2,7}]dodeca-2(7),3,5-triene-8-carboxamide] | 
B (B (EC1.5 1-25 μM)) | > 150% | O=C(Nc1cnccn1)N1c2nc(N3CCOC(C4CC4)C3)ccc2N2CC[C@H]1C2 (stereo partly drawn) [(9S)-5-(2-cyclopropylmorpholin-4-yl)-N-(pyrazin-2-yl)-1,6,8-triazatricyclo[7.2.1.0 {2,7}]dodeca-2,4,6-triene-8-carboxamide] | 
B (B (EC1.5 1-25 μM)) | > 150% | Cc1ccc(-c2ccc3c(n2)N(C(=O)Nc2cccc4cnccc24)[C@H]2CCN3C2)cn1 [(9S)-N-(isoquinolin-5-yl)-5-(6-methylpyridin-3-yl)-1,6,8-triazatricyclo[7.2.1.0 {2,7}]dodeca-2,4,6-triene-8-carboxamide] | 
A (A (EC1.5<1 μM)) | > 150% | CCc1cc(-c2ccc3c(n2)N(C(=O)Nc2cnccn2)[C@H]2CCN3C2)ccn1 [(9S)-5-(2-ethylpyridin-4-yl)-N-(pyrazin-2-yl)-1,6,8-triazatricyclo[7.2.1.0 {2,7}]dodeca-2(7),3,5-triene-8-carboxamide] | 
C (C (EC1.5>25 μM)) | > 150% | Cc1cc(-c2ccc3c(n2)N(C(=O)Nc2ncn(C)n2)[C@H]2CCN3C2)ccn1 [(9S)-N-(1-methyl-1H-1,2,4-triazol-3-yl)-5-(2-methylpyridin-4-yl)-1,6,8-triazatricyclo[7.2.1.0 {2,7}]dodeca-2(7),3,5-triene-8-carboxamide] | 

Second part, the compound before the results:

Structure (SMILES) | TRP Activity (EC1.5) | Emax | other results
COc1ccc(C)nc1NC(=O)N1c2nc(-c3cccc(C(F)(F)F)c3)ccc2N2CC[C@H]1C2 [Example 77] |  |  | Tryp AVG EC1.5 (μM) (Trp peptide substrate, concentration giving 150% activation of SIRT1): B (B (EC1.5 1-25 μM))
Cc1cncc(NC(=O)N2c3nc(-c4cccc(C(F)(F)F)c4)ccc3N3C[C@@H](O)[C@H]2C3)c1 [Example 670] |  |  | Tryp AVG EC1.5 (μM) [1]: A (A (EC1.5<1 μM))
Cc1cc(-c2ccc3c(n2)N(C(=O)Nc2cccnn2)[C@H]2CCCN3C2)ccn1 [(9S)-5-(2-methylpyridin-4-yl)-N-(pyridazin-3-yl)-1,6,8-triazatricyclo[7.3.1.0 {2,7}]trideca-2(7),3,5-triene-8-carboxamide] | A (A (EC1.5<1 μM)) | > 150% | 
O=C(Nc1cncnc1)N1c2nc(-c3cncc(C(F)(F)F)c3)ccc2N2CCC[C@H]1C2 [(9S)-N-(pyrimidin-5-yl)-5-[5-(trifluoromethyl)pyridin-3-yl]-1,6,8-triazatricyclo[7.3.1.0 {2,7}]trideca-2(7),3,5-triene-8-carboxamide] | A (A (EC1.5<1 μM)) | > 150% | 
O=C(Nc1ccccn1)N1c2nc(-c3cncc(Cl)c3)ccc2N2CCC1CC2 [Example 551] |  |  | Tryp AVG EC1.5 (μM) [2]: B (B (EC1.5 1-25 μM))
O=C(Nc1nnc(-c2ccncc2)s1)N1c2nc(-c3cccc(C(F)(F)F)c3)ccc2N2CC[C@H]1C2 [Example 733] |  |  | Tryp AVG EC1.5 (μM) [1]: A (A (EC1.5<1 μM))
O=C(Nc1cccnc1)N1c2nc(-c3cccc(C(F)(F)F)c3)ccc2N2C[C@@H](O)[C@H]1C2 [Example 663] |  |  | Tryp AVG EC1.5 (μM) [1]: A (A (EC1.5<1 μM))
CC(C)C(=O)c1cccc(NC(=O)N2c3nc(-c4cccc(C(F)(F)F)c4)ccc3N3CC[C@H]2C3)c1 [Example 740] |  |  | Tryp AVG EC1.5 (μM) [1]: A (A (EC1.5<1 μM))
N#Cc1cc(-c2ccc3c(n2)N(C(=O)Nc2ccccn2)[C@H]2CCN3C2)ccc1F [Example 341] |  |  | Tryp AVG EC1.5 (μM) [3]: A (A (EC1.5<1 μM))
Cc1cc(-c2ccc3c(n2)N(C(=O)Nc2cnc(C4CC4)cn2)[C@H]2CCN3C2)ccn1 [(9S)-N-(5-cyclopropylpyrazin-2-yl)-5-(2-methylpyridin-4-yl)-1,6,8-triazatricyclo[7.2.1.0 {2,7}]dodeca-2(7),3,5-triene-8-carboxamide] | A (A (EC1.5<1 μM)) | > 150% | 
NC(=O)CN1CCC(c2cccc(NC(=O)N3c4nc(-c5cccc(C(F)(F)F)c5)ccc4N4CC[C@H]3C4)c2)C1 (some centres unmarked) [Example 594] |  |  | Tryp AVG EC1.5 (μM) [2]: A (A (EC1.5<1 μM))
COc1cc(NC(=O)N2c3nc(-c4cncc(Cl)c4)ccc3N3CCC2CC3)nc(OC)n1 [Example 553] |  |  | Tryp AVG EC1.5 (μM) [2]: B (B (EC1.5 1-25 μM))
COc1cc(NC(=O)N2c3nc(-c4cccc(Cl)c4)ccc3N3CCC2CC3)nc(OC)n1 [Example 523] |  |  | Tryp AVG EC1.5 (μM) [2]: A (A (EC1.5<1 μM))
Cn1nccc1-c1ccc2c(n1)N(C(=O)Nc1cccnc1)[C@H]1CCN2C1 [Example 524] |  |  | Tryp AVG EC1.5 (μM) [2]: B (B (EC1.5 1-25 μM))
Cc1cc(-c2ccc3c(n2)N(C(=O)Nc2nccc4nccnc24)[C@H]2CCN3C2)ccn1 [(9S)-5-(2-methylpyridin-4-yl)-N-{pyrido[3,4-b]pyrazin-5-yl}-1,6,8-triazatricyclo[7.2.1.0 {2,7}]dodeca-2,4,6-triene-8-carboxamide] | B (B (EC1.5 1-25 μM)) | > 150% | 
COc1cc(NC(=O)N2c3nc(-c4cccc(C(F)(F)F)n4)ccc3N3CC[C@H]2C3)ncn1 [Example 339] |  |  | Tryp AVG EC1.5 (μM) [3]: B (B (EC1.5 1-25 μM))
O=C(Nc1cc(-c2cnco2)ccn1)N1c2nc(-c3cncc(C(F)(F)F)c3)ccc2N2C[C@@H](O)[C@H]1C2 [Example 726] |  |  | Tryp AVG EC1.5 (μM) [1]: B (B (EC1.5 1-25 μM))
O=C(NCCN1CCOCC1)N1c2nc(-c3cccc(C(F)(F)F)c3)ccc2N2CC[C@H]1C2 [Example 616] |  |  | Tryp AVG EC1.5 (μM) [2]: B (B (EC1.5 1-25 μM))
O=C(Nc1ccc(F)cn1)N1c2nc(-c3ccnc(N4CC[C@H](F)C4)c3)ccc2N2CC[C@H]1C2 [Example 463] |  |  | Tryp AVG EC1.5 (μM) [2]: A (A (EC1.5<1 μM))
COc1cc(NC(=O)N2c3nc(-c4cccc(C(F)(F)F)c4)ccc3N3C[C@@H](O)[C@H]2C3)nc(OC)n1 [Example 664] |  |  | Tryp AVG EC1.5 (μM) [1]: B (B (EC1.5 1-25 μM))
O=C(Nc1cc(-c2cnco2)ccn1)N1c2nc(-c3cccc(C(F)(F)F)c3)ccc2N2CC[C@H]1C2 [Example 589] |  |  | Tryp AVG EC1.5 (μM) [2]: A (A (EC1.5<1 μM))
N#Cc1cncc(-c2ccc3c(n2)N(C(=O)Nc2ccccn2)[C@H]2CCN3C2)c1 [Example 373] |  |  | Tryp AVG EC1.5 (μM) [3]: A (A (EC1.5<1 μM))
O=C(Nc1cccc(-c2cnco2)c1)N1c2nc(-c3cccc(Cl)c3)ccc2N2CCC1CC2 [Example 497] |  |  | Tryp AVG EC1.5 (μM) [2]: A (A (EC1.5<1 μM))
CN(C)Cc1cccc(-c2ccc3c(n2)N(C(=O)Nc2ccccn2)[C@H]2CCN3C2)c1 [Example 343] |  |  | Tryp AVG EC1.5 (μM) [3]: B (B (EC1.5 1-25 μM))
Cc1ccc(-c2ccc3c(n2)N(C(=O)NCC(F)(F)F)[C@H]2CCN3C2)cn1 [(9S)-5-(6-methylpyridin-3-yl)-N-(2,2,2-trifluoroethyl)-1,6,8-triazatricyclo[7.2.1.0^{2,7}]dodeca-2(7),3,5-triene-8-carboxamide] | B (B (EC1.5 1-25 μM)) | > 150% | 
O=C(Nc1cccc(-c2ccccc2)c1)N1c2nc(-c3cccc(C(F)(F)F)c3)ccc2N2CC[C@H]1C2 [Example 625] |  |  | Tryp AVG EC1.5 (μM) [1]: A (A (EC1.5<1 μM))
Cc1cc(-c2ccc3c(n2)N(C(=O)Nc2cccc(-c4cnco4)c2)[C@H]2CCN3C2)ccn1 [Example 480] |  |  | Tryp AVG EC1.5 (μM) [2]: A (A (EC1.5<1 μM))
COc1cncc(NC(=O)N2c3nc(-c4ccnc(C)c4)ccc3N3CCC[C@H]2C3)n1 [(9S)-N-(6-methoxypyrazin-2-yl)-5-(2-methylpyridin-4-yl)-1,6,8-triazatricyclo[7.3.1.0 {2,7}]trideca-2(7),3,5-triene-8-carboxamide] | A (A (EC1.5<1 μM)) | > 150% | 
O=C(Nc1cccc(-c2ccoc2)n1)N1c2nc(-c3cccc(C(F)(F)F)c3)ccc2N2CC[C@H]1C2 [Example 654] |  |  | Tryp AVG EC1.5 (μM) [1]: A (A (EC1.5<1 μM))
O=C(Nc1ccc2[nH]ncc2c1)N1c2nc(-c3cccc(C(F)(F)F)c3)ccc2N2CC[C@H]1C2 [Example 666] |  |  | Tryp AVG EC1.5 (μM) [1]: A (A (EC1.5<1 μM))
